Data on 23 compounds can be found in patent US10174038B2, “Compounds and methods for antiviral treatment” (Gilead Sciences, Inc., priority 2012, dated 2019).

The assay deals with RSV strain A2. Description: RSV antiviral activity, in vitro cytoprotection assay in Hep2 cells. Particulars: human respiratory syncytial virus, HEp-2; 0.5 μM compound; RSV-induced cytopathic effect in Hep2 cells; % inhibition calculated from fitted 4-parameter dose response curve, normalized to 0% and 100%; read-out: Percent inhibition at 0.5 μM. It counts as cell-based, Respiratory Syncytial Virus (RSV). The protocol: Antiviral activity against RSV was determined using an in vitro cytoprotection assay in Hep2 cells. […] The method used was similar to methods previously described in published literature (Chapman et al., Antimicrob Agents Chemother. 2007, 51(9):3346-53.)
Hep2 cells were obtained from ATCC (Manassas, Va.) and maintained in MEM media supplemented with 10% fetal bovine serum and penicillin/streptomycin. Cells were passaged twice a week and kept at subconfluent stage. Commercial stock of RSV strain A2 (Advanced Biotechnologies, Columbia, Md.) was titered before compound testing to determine the appropriate dilution of the virus stock that generated desirable cytopathic effect in Hep2 cells.
For antiviral tests, Hep2 cells were seeded into 96-well plates 24 hours before the assay at a density of 3,000 cells/well. On a separate 96 well plate, compounds to be tested were serially diluted in cell culture media. Eight concentrations in 3-fold serial dilution increments were prepared for each tested compound and 100 uL/well of each dilution was transferred in duplicate onto plates with seeded Hep2 cells. Subsequently, appropriate dilution of virus stock previously determined by titration was prepared in cell culture media and 100 uL/well was added to test plates containing cells and serially diluted compounds. Each plate included three wells of infected untreated cells and three wells of uninfected cells that served as 0% and 100% virus inhibition control, respectively. Following the infection with RSV, testing plates were incubated for 4 days in a tissue culture incubator. After the incubation, RSV-induced cytopathic effect was determined using a Cell TiterGlo reagent (Promega, Madison, Wis.) followed by a luminescence read-out. The percentage inhibition was calculated for each tested concentration relative to the 0% and 100% inhibition controls and the EC50 value for each compound was determined by non-linear regression as a concentration inhibiting the RSV-induced cytopathic effect by 50%. Ribavirin (purchased from Sigma, St. Louis, Mo.) was used as a positive control for antiviral activity.
Compounds were also tested for antiviral activity against RSV in Hep2 cells using a 384 well format. Compounds were diluted in DMSO using a 10-step serial dilution in 3-fold increments via automation in 4 adjacent replicates each. Eight compounds were tested per dilution plate. 0.4 uL of diluted compounds were then stamped via Biomek into 384-well plates (Nunc 142761 or 164730 w/lid 264616) containing 20 μL of media (Mediatech Inc. MEM supplemented with Glutamine, 10% FBS and Pen/Strep). DMSO and a suitable positive control compound, such as 80 μM GS-329467 or 10 μM 427346 was used for the 100% and 0% cell killing controls, respectively.
Hep2 cells (1.0×10^5 cells/ml) were prepared as above in batch to at least 40 mls excess of the number of sample plates (8 mls cell mix per plate) and infected with vendor supplied (ABI) RSV strain A2 to arrive at an MOI of 1:1000 (virus:cell #) or 1:3000 (vol virus:cell vol). Immediately after addition of virus, the RSV infected Hep2 cell suspension was added to each stamped 384-well plate at 20 μl per well using a uFlow dispenser, giving a final volume of 40 μL/well, each with 2000 infected cells. The plates were then incubated for 5 days at 37° C. and 5% CO2. Following incubation, the plates were equilibrated to room temperature in a biosafety cabinet hood for 1.5 hrs and 40 μL of Cell-Titer Glo viability reagent (Promega) was added to each well via uFlow. Following a 10-20 minute incubation, the plates were read using an EnVision or Victor Luminescence plate reader (Perkin-Elmer). The data was then uploaded and analyzed on the Bioinformatics portal under the RSV Cell Infectivity and 8-plate EC50-Hep2-384 or 8-plate EC50-Hep2-Envision protocols. […]
In the case of `Cc1cn2nc([C@@H]3CCCCN3C(=O)c3cc(Cl)ccc3NS(C)(=O)=O)cc2nc1N1CC(F)(F)C1` [Compound 98], the inhibition (as a rule, the drop in the measured response relative to a control, in per cent) at 0.5 µM is 100%.
With `COC(=O)C1CCN1c1nc2cc([C@@H]3CCCCN3C(=O)c3cc(Cl)ccc3NS(C)(=O)=O)nn2cc1C` (some centres unmarked) [Compound 99], the inhibition at 0.5 µM is 100%.
The same measure for `Cc1cn2nc([C@@H]3CCCCN3C(=O)C(NS(C)(=O)=O)c3ccccc3F)cc2nc1N1CC[C@H](N)C1` (some centres unmarked) [Compound 100]: 100%.
Regarding `Cc1cn2nc([C@@H]3CCCCN3C(=O)C(NS(C)(=O)=O)c3ccccc3)cc2nc1N1CC[C@H](N)C1` (some centres unmarked) [Compound 101], the inhibition at 0.5 µM was 100%.
As for `COC(=O)N[C@H](C(=O)N1CCCC[C@H]1c1cc2nc(N3CC[C@H](N)C3)c(C)cn2n1)C1CC1` [Compound 102], the inhibition at 0.5 µM is 99%.
For `Cc1ccc(NS(C)(=O)=O)c(C(=O)N2CCCC[C@H]2c2cc3nc(C)nc(C)n3n2)c1` [Compound 103], the inhibition at 0.5 µM is 27%.
The same measure for `Cc1cc(C)n2cc([C@@H]3CCCCN3C(=O)c3cc(Cl)ccc3NS(C)(=O)=O)nc2c1` [Compound 104]: 3%; for `Cc1ccc(NS(C)(=O)=O)c(C(=O)N2CCCC[C@H]2c2cc3cc(C)cc(C)n3n2)c1` [Compound 105]: 96%; for `CS(=O)(=O)Nc1ccc(Cl)cc1C(=O)N1CCCC[C@H]1c1cn2nc(N3CCC3)ccc2n1` [Compound 106]: 100%.
Turning to `Cc1cc2nc([C@@H]3CCCCN3C(=O)c3cc(Cl)ccc3NS(C)(=O)=O)cn2nc1N1CC[C@H](N)C1` [Compound 107], the inhibition at 0.5 µM is 100%.
In the case of `Cc1cc(N2CC[C@H](N)C2)nn2cc([C@@H]3CCCCN3C(=O)c3cc(Cl)ccc3NS(C)(=O)=O)nc12` [Compound 108], the inhibition at 0.5 µM was 100%.
With `Cc1ccc(NS(C)(=O)=O)c(C(=O)N2CCCC[C@H]2c2nc3cc(C)cc(C)n3n2)c1` [Compound 110], the inhibition at 0.5 µM was 60%.
Consider `CS(=O)(=O)Nc1ccc(Cl)cc1C(=O)N1CCCC[C@H]1c1cc2ccc(N3CCC3)nn2c1` [Compound 111], for which the inhibition at 0.5 µM is 56%.
Consider `Cc1ccc(NS(C)(=O)=O)c(C(=O)N2CCCC[C@H]2c2nc3c(C)cc(C)nc3[nH]2)c1` [Compound 112], for which the inhibition at 0.5 µM was 5%.
Regarding `Cc1cc(C)n2nc(C3CCCCN3C(=O)c3cc(Cl)ccc3NS(C)(=O)=O)nc2n1` (centres unmarked) [Compound 113], the inhibition at 0.5 µM was 16%.
With `Cc1cc(NS(C)(=O)=O)c(C(=O)N2CCCC[C@H]2c2cn3nc(N4CC[C@H](N)C4)c(C)cc3n2)s1` [Compound 114], the inhibition at 0.5 µM is 100%.
On to `Cc1ccc(NS(C)(=O)=O)c(C(=O)N2CCCC[C@H]2c2cn3nc(N4CC[C@H](N)C4)c(C)cc3n2)c1` [Compound 115], for which the inhibition at 0.5 µM was 100%.
As to `Cc1cc2nc([C@@H]3CCCCN3C(=O)C(NS(C)(=O)=O)c3ccccc3Br)cn2nc1N1CC[C@H](N)C1` (some centres unmarked) [Compound 116], the inhibition at 0.5 µM was 100%.
`CS(=O)(=O)Nc1ccc(Cl)cc1C(=O)N1CCCC[C@H]1c1cn2nc(N3CC[C@H](N)C3)ccc2n1` [Compound 117]: the inhibition at 0.5 µM was 100%.
Turning to `CS(=O)(=O)Nc1ccc(Cl)cc1C(=O)N1CCCC[C@H]1c1cn2nc(N3C[C@@H](C#N)[C@@H](O)C3)ccc2n1` [Compound 118], the inhibition at 0.5 µM is 100%.
`Cc1cccc(C(=O)N2CCCC[C@H]2c2cn3nc(N4CC[C@H](N)C4)ccc3n2)n1` [Compound 119]: the inhibition at 0.5 µM was 83%.
For `CS(=O)(=O)Nc1ccc(Cl)cc1C(=O)N1CCCC[C@H]1c1cn2nc(N3CC(O)C3)ccc2n1` [Compound 120], the inhibition at 0.5 µM is 100%.
Turning to `Cc1ccc(Cl)cc1C(=O)N1CCCC[C@H]1c1cn2nc(N3CC[C@H](N)C3)ccc2n1` [Compound 121], the inhibition at 0.5 µM is 100%.
